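Step 1: Grow cells in 96-well plates. Step 2: Expose to compound for 48 hours at 5 concentrations. Step 3: Interpolate endpoints linearly; if unreached, use highest concentration. The concentration for 50% growth inhibition is given as GI50.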 Active and inactive are the calls of the source. No stated cut-off is given here; in the data, active = GI50 up to about 1.1 µM and inactive = higher. Starred links: 1 amine or outer side, 2 acyl side, 3 side chain; linkers in the order of their positions; H or OH if unused. Positions of bridges follow the written chain, without caps; N, C: chain ends. Non-standard residues stand in square brackets, D forms with d. Residues, ends and D or L forms follow the SMILES beside them. ξ: configuration not given here. X11 = CCC(C)C(N[*:1])C(O)CC(=O)O[C@H](C(=O)C(C)C(=O)[*:2])C(C)C; X10 = O=C([C@@H]1CC(O)CN1[*:1])[*:2]; NMeY = CN[C@@H](Cc1ccc(O)cc1)C(=O)O; ξNMeL = CNC(CC(C)C)C(=O)O; ξT = CC(O)C(N)C(=O)O
What was measured:
Experiment in all cases: DTP human tumour cell line panel, 48 h
[1] = test system: 786-0
[2] = test system: A498
[3] = test system: A549
[4] = test system: ACHN
[5] = test system: BT-549
[6] = test system: CAKI-1
[7] = test system: CCRF-CEM
[8] = test system: COLO 205
[9] = test system: DU-145
[10] = test system: EKVX
[11] = test system: HCC 2998
[12] = test system: HCT-116
[13] = test system: HCT-15
[14] = test system: HL-60
[15] = test system: HOP-62
[16] = test system: HOP-92
[17] = test system: HT-29
[18] = test system: Hs-578T
[19] = test system: IGROV-1
[20] = test system: K562
[21] = test system: KM12
[22] = test system: LOX IMVI
[23] = test system: M14
[24] = test system: MCF7
[25] = test system: MDA-MB-231
[26] = test system: MDA-MB-435
[27] = test system: MDA-N
[28] = test system: MOLT-4
[29] = test system: Malme-3M
[30] = test system: NCI-H226
[31] = test system: NCI-H23
[32] = test system: NCI-H460
[33] = test system: NCI-H522
[34] = test system: NCI/ADR-RES
[35] = test system: OVCAR-3
[36] = test system: OVCAR-4
[37] = test system: OVCAR-5
[38] = test system: OVCAR-8
[39] = test system: PC-3
[40] = test system: RPMI-8226
[41] = test system: RXF 393
[42] = test system: SF-268
[43] = test system: SF-295
[44] = test system: SF-539
[45] = test system: SK-MEL-28
[46] = test system: SK-MEL-2
[47] = test system: SK-MEL-5
[48] = test system: SK-OV-3
[49] = test system: SN12C
[50] = test system: SNB-19
[51] = test system: SNB-75
[52] = test system: SR
[53] = test system: SW-620
[54] = test system: T47D
[55] = test system: TK-10
[56] = test system: U-251
[57] = test system: UACC-257
[58] = test system: UACC-62
[59] = test system: UO-31

Which GI50 [1] does the source give for `CCC(C)C1NC(=O)C(NC(=O)C(CC(C)C)N(C)C(=O)[C@@H]2CC(O)CN2)C(C)OC(=O)[C@H](Cc2ccc(OC)cc2)N(C)C(=O)[C@@H]2CCCN2C(=O)[C@H](CC(C)C)NC(=O)C(C)C(=O)[C@H](C(C)C)OC(=O)CC1O` (stereo partly drawn) (H-[X10][ξNMeL][ξT][X11]LP[NMeY](Me); ester 3-C) here?
Its GI50 is 0.0121 µM (active).

And the GI50 [2]?
The GI50 was 0.0548 µM (active).

And the GI50 [3]?
Its GI50 is 0.0228 µM (active).

And the GI50 [4]?
The GI50 was 0.0382 µM (active).

And the GI50 [5]?
Its GI50 is 0.00609 µM (active).

What about the GI50 [6] of the same compound?
Its GI50 is 0.232 µM (active).

What about the GI50 [7] of the same compound?
The GI50 was 0.00233 µM (active).

And the GI50 [8]?
The GI50 was 0.00309 µM (active).

And the GI50 [9]?
The GI50 was 0.0363 µM (active).

What about the GI50 [10] of the same compound?
The GI50 was 0.01 µM (active).

What about the GI50 [11] of the same compound?
Its GI50 is 0.00469 µM (active).

What about the GI50 [12] of the same compound?
Its GI50 is 0.00143 µM (active).

And the GI50 [13]?
The GI50 was 0.472 µM.

And the GI50 [14]?
Its GI50 is 0.0114 µM (active).

What about the GI50 [15] of the same compound?
Its GI50 is 0.00931 µM (active).

And the GI50 [16]?
The GI50 was 0.0189 µM (active).

What about the GI50 [17] of the same compound?
The GI50 was 0.00445 µM (active).

And the GI50 [18]?
Its GI50 is < 0.001 µM (active).

What about the GI50 [19] of the same compound?
Its GI50 is 0.00272 µM (active).

What about the GI50 [20] of the same compound?
Its GI50 is 0.00394 µM (active).

And the GI50 [21]?
The GI50 was < 0.001 µM (active).

What about the GI50 [22] of the same compound?
The GI50 was 0.00311 µM (active).

What about the GI50 [23] of the same compound?
Its GI50 is 0.00419 µM (active).

And the GI50 [24]?
Its GI50 is < 0.001 µM (active).

What about the GI50 [25] of the same compound?
Its GI50 is 0.0224 µM (active).

What about the GI50 [26] of the same compound?
The GI50 was 0.0102 µM (active).

And the GI50 [27]?
Its GI50 is 0.00561 µM (active).

What about the GI50 [28] of the same compound?
Its GI50 is 1.61 nM (active).

What about the GI50 [29] of the same compound?
Its GI50 is 0.00336 µM (active).

What about the GI50 [30] of the same compound?
The GI50 was 0.00182 µM (active).

What about the GI50 [31] of the same compound?
The GI50 was 0.01 µM (active).

What about the GI50 [32] of the same compound?
The GI50 was 4.91 nM (active).

And the GI50 [33]?
Its GI50 is 0.00488 µM (active).

And the GI50 [34]?
The GI50 was 1.45 µM (inactive).

What about the GI50 [35] of the same compound?
The GI50 was 0.014 µM (active).

And the GI50 [36]?
The GI50 was 0.00594 µM (active).

What about the GI50 [37] of the same compound?
Its GI50 is 0.0275 µM (active).

What about the GI50 [38] of the same compound?
Its GI50 is 0.0384 µM (active).

And the GI50 [39]?
The GI50 was 0.0135 µM (active).

And the GI50 [40]?
The GI50 was 0.0082 µM (active).

What about the GI50 [41] of the same compound?
The GI50 was 0.0115 µM (active).

And the GI50 [42]?
Its GI50 is 0.011 µM (active).

What about the GI50 [43] of the same compound?
Its GI50 is 0.0113 µM (active).

And the GI50 [44]?
Its GI50 is 0.00157 µM (active).

What about the GI50 [45] of the same compound?
The GI50 was < 0.001 µM (active).

And the GI50 [46]?
Its GI50 is 0.00399 µM (active).

What about the GI50 [47] of the same compound?
The GI50 was < 0.001 µM (active).

What about the GI50 [48] of the same compound?
Its GI50 is 0.00321 µM (active).

And the GI50 [49]?
The GI50 was 0.00951 µM (active).

What about the GI50 [50] of the same compound?
The GI50 was 0.00819 µM (active).

What about the GI50 [51] of the same compound?
Its GI50 is 0.0106 µM (active).

And the GI50 [52]?
The GI50 was 14.8 nM (active).

And the GI50 [53]?
Its GI50 is 0.0108 µM (active).

What about the GI50 [54] of the same compound?
The GI50 was 0.0035 µM (active).

What about the GI50 [55] of the same compound?
The GI50 was 0.164 µM (active).

What about the GI50 [56] of the same compound?
Its GI50 is 0.00175 µM (active).

What about the GI50 [57] of the same compound?
Its GI50 is 0.0152 µM (active).

What about the GI50 [58] of the same compound?
The GI50 was < 0.001 µM (active).

What about the GI50 [59] of the same compound?
The GI50 was 0.233 µM (active).

With `Fc1cccc(CSc2ncnc3c2ncn3C2CCCS2)c1` (stereo not drawn) as the compound, how does the GI50 [1] read?
The GI50 was 20.7 µM (inactive).

What about the GI50 [2] of the same compound?
The GI50 was 17.3 µM (inactive).

And the GI50 [3]?
Its GI50 is 20.1 µM (inactive).

What about the GI50 [4] of the same compound?
The GI50 was 16.9 µM (inactive).

What about the GI50 [5] of the same compound?
Its GI50 is 21.7 µM (inactive).

And the GI50 [6]?
Its GI50 is 37.1 µM (inactive).

And the GI50 [7]?
The GI50 was 8.49 µM (inactive).

And the GI50 [8]?
The GI50 was 10.2 µM (inactive).

And the GI50 [9]?
The GI50 was 17.4 µM (inactive).

And the GI50 [10]?
The GI50 was 18.7 µM (inactive).

And the GI50 [11]?
The GI50 was 21.9 µM (inactive).

And the GI50 [12]?
The GI50 was 8.34 µM (inactive).

What about the GI50 [13] of the same compound?
Its GI50 is 8.51 µM.

What about the GI50 [14] of the same compound?
The GI50 was 8.83 µM (inactive).

What about the GI50 [15] of the same compound?
The GI50 was 17.6 µM (inactive).

What about the GI50 [16] of the same compound?
Its GI50 is 24.2 µM (inactive).

And the GI50 [17]?
The GI50 was 15.5 µM (inactive).

And the GI50 [18]?
Its GI50 is 26.9 µM (inactive).

And the GI50 [19]?
The GI50 was 22.4 µM (inactive).

What about the GI50 [20] of the same compound?
The GI50 was 8.77 µM (inactive).

What about the GI50 [21] of the same compound?
Its GI50 is 15.4 µM (inactive).

What about the GI50 [22] of the same compound?
Its GI50 is 13.2 µM (inactive).

And the GI50 [23]?
Its GI50 is 18.1 µM (inactive).

And the GI50 [24]?
Its GI50 is 22 µM (inactive).

And the GI50 [25]?
Its GI50 is 23 µM (inactive).

What about the GI50 [26] of the same compound?
The GI50 was 18.5 µM (inactive).

What about the GI50 [27] of the same compound?
The GI50 was 20.8 µM (inactive).

What about the GI50 [28] of the same compound?
Its GI50 is 3770 nM (inactive).

What about the GI50 [29] of the same compound?
Its GI50 is 21 µM (inactive).

And the GI50 [30]?
The GI50 was 29.2 µM (inactive).

What about the GI50 [31] of the same compound?
The GI50 was 23.9 µM (inactive).

What about the GI50 [32] of the same compound?
The GI50 was 4790 nM (inactive).

What about the GI50 [33] of the same compound?
Its GI50 is 15.1 µM (inactive).

What about the GI50 [34] of the same compound?
The GI50 was 25 µM (inactive).

And the GI50 [35]?
The GI50 was 17.4 µM (inactive).

What about the GI50 [36] of the same compound?
The GI50 was 23.4 µM (inactive).

What about the GI50 [37] of the same compound?
Its GI50 is 37.3 µM (inactive).

What about the GI50 [38] of the same compound?
Its GI50 is 20.8 µM (inactive).

And the GI50 [39]?
Its GI50 is 14.5 µM (inactive).

What about the GI50 [40] of the same compound?
The GI50 was 7.08 µM (inactive).

And the GI50 [41]?
Its GI50 is 17.3 µM (inactive).

And the GI50 [42]?
The GI50 was 14.8 µM (inactive).

And the GI50 [43]?
The GI50 was 18.2 µM (inactive).

And the GI50 [44]?
Its GI50 is 11.7 µM (inactive).

And the GI50 [45]?
The GI50 was 18.9 µM (inactive).

And the GI50 [46]?
Its GI50 is 19.6 µM (inactive).

What about the GI50 [47] of the same compound?
Its GI50 is 10.5 µM (inactive).

And the GI50 [48]?
Its GI50 is 38.5 µM (inactive).

What about the GI50 [49] of the same compound?
The GI50 was 25.8 µM (inactive).

And the GI50 [50]?
The GI50 was 36.2 µM (inactive).

And the GI50 [51]?
The GI50 was 17.6 µM (inactive).

What about the GI50 [52] of the same compound?
Its GI50 is 3940 nM (inactive).

And the GI50 [53]?
Its GI50 is 29.9 µM (inactive).

What about the GI50 [54] of the same compound?
Its GI50 is 29.3 µM (inactive).

And the GI50 [55]?
Its GI50 is 30.6 µM (inactive).

What about the GI50 [56] of the same compound?
The GI50 was 10.5 µM (inactive).

And the GI50 [57]?
Its GI50 is 15.6 µM (inactive).

What about the GI50 [58] of the same compound?
Its GI50 is 13.1 µM (inactive).

What about the GI50 [59] of the same compound?
Its GI50 is 12.1 µM (inactive).
